Source: patent US20140309295A1, “ANTIEPILEPTIC, HYPOCHOLESTEROLEMIC AND NEUROPROTECTIVE COMPOUND” (NEURON BIOPHARMA, S.A., priority 2009, published 2014)

Experiments:
[1] = tested on: human neuroblastoma SK-N-MC cells; assay: Inhibition of camptothecin-induced apoptosis by flow cytometry (sub-G1); format: cell-based; details: 50 μM camptothecin
Procedure: The assay was performed on human neuroblastoma SK-N-MC cells in culture from the American Type Culture Collection (ATCC), in all cases strict rules of sterility were followed and the manipulation was performed in class II biological safety cabinets following European standard EN 12469. The cells were maintained in the following culture medium: Minimum Essential Medium Eagle (MEM) supplemented with 1 mM sodium pyruvate, 2 mM L-glutamine, 0.1 mM non-essential amino acids, 0.05 mg/ml gentamicin and 10% fetal bovine serum.
The inhibition caused by compound NST0037 against apoptosis (programmed cell death) caused by treatment with camptothecin which inhibits the enzyme Topoisomerase I, which prevents DNA duplication and triggers apoptotic cell death, was analyzed. These cells, not exceeding 15 passages, were seeded on 6-well plates treated for adherent cells with a cell concentration of 8×10^5 cells/well and 7×10^5 cells/well for the assay with pretreatment; 2 wells of the plate were seeded for each condition of the assay.
After 24 hours of cell incubation at 37° C. and 5% CO2, the cell treatments were performed with 2 ml of total volume for the following conditions: • Control: culture medium (medium) • Camptothecin: medium plus camptothecin 50 μM. • Camptothecin plus Z-VAD-fmk: medium plus 50 μM camptothecin plus 50 μM Z-VAD-fmk, as positive inhibition control. • Camptothecin plus NST0037: medium plus 50 μM camptothecin plus NST0037 at 10, 40 or 100 μM.
In the assay with pretreatment, the cells were previously treated with 40 μM of NST0037, 100 μM of mevalonate or both together for 24 hours and then they were treated with 50 μM camptothecin, the rest of the procedure was similar to the assay without pretreatment.
The cells were incubated (at 37° C. and 5% CO2) with these treatments for 6 hours, after which time they were collected along with their culture medium and centrifuged at 300×g for 5 minutes. The medium was removed, a washing was performed with PBS and the cells were fixed for 2 minutes with 500 μl of 70% ethanol at −20° C. Once fixed, they were centrifuged at 400×g for 5 minutes, washed with PBS and 0.05 mg/ml propidium iodide, diluted in cycling buffer (0.1% sodium citrate, 0.3% Nonidet P-40 and 0.02 mg/ml RNase) were added and they were incubated for 1 hour at 37° C. After this time they were analyzed by flow cytometry, comparing the fluorescence of propidium iodide against the amount of DNA. The percentage of apoptosis was measured on the sub-G1 region of each of the conditions.

[2] = tested on: Candida albicans CECT 1002; assay: Fungicidal activity bioassay (growth inhibition halos); format: cell-based; details: β-hydroxy acid form
Procedure: The fungicidal activity of NST0037 was analyzed by means of bioassay against Candida albicans. […] The assayed concentrations were the following: 2, 1.5, 1, 0.5, 0.25, 0.125, 0.06, 0.025 and 0.01 mM. Plates of MA medium (containing per liter: 20 g malt extract, 20 g glucose, 1 g mycopeptone and 10 g agar) previously inoculated with a culture of Candida albicans CECT (Spanish Type-Culture Collection) 1002 were prepared. With aid of a die (6 mm in diameter) various wells were prepared in which 40 μL of the previous solutions were deposited. The study was performed in triplicate and triplicates for each compound and concentration were included in each plate. The plates were kept at 4° C. for 1 hour and were subsequently incubated at 28° C. overnight. The presence of antifungal activity was determined by means of the formation of C. albicans growth inhibition halos.

[3] = tested on: FVB/NHan mice inoculated with kainate (KA); assay: Neuropathological signs in hippocampus after kainate (MAP2, HNE, T.U.N.E.L., GFAP); format: in vivo; details: for neuritic dystrophy (MAP2 labeling) in hippocampus: 50 mg/kg i.p., 7 days
Procedure: All the animals included for the experimental process were 12-week old males of the FVB/NHan strain. The experiments were conducted strictly following the Guidance on the Operation of Animals (Scientific Procedures, Act. 1986). The animals had their respective quarantine period and were treated with maximum precaution to minimize possible contaminations during inoculations and handling.
Twenty-five animals were used in this assay and the treatments were all conducted by intraperitoneal (i.p.) route with a volume of 100 μl, according to the following regimens: • i) PBS+PBS+PBS regimen: 4 animals were initially treated with PBS with a daily dose for 2 days, on the second day the animals were inoculated with a new dose of PBS and for the next 7 days with a daily dose of PBS. • ii) NST0037+KA+NST0037 regimen: 7 animals were initially treated with a daily dose for 2 days with NST0037 at 50 mg/kg, on the second day the animals were inoculated with a dose of kainate at 25 mg/Kg and for the next 7 days with a daily dose of NST0037 at 50 mg/kg. • iii) PBS+KA+PBS regimen: 7 animals were initially treated with PBS with a daily dose for 2 days, on the second day the animals were inoculated with a dose of kainate at 25 mg/Kg and for the next 7 days with a daily dose of PBS. • iv) PBS+KA+NST0037 regimen: 7 animals were initially treated with PBS with a daily dose for 2 days, on the second day the animals were inoculated with a dose of kainate at 25 mg/Kg and for the next 7 days with a daily dose of NST0037 at 50 mg/kg.
(§1) Once the treatment time of 7 days ended, the animals were sacrificed and the brains were dissected. The brain samples were processed and included in paraffin. For the analysis of neuritic dystrophy in the hippocampus, bright field immunochemistry against microtubule associated protein type 2 (MAP2) was performed in 5 μm thick coronal sections.
as §1, with “oxidative damage due to lipid peroxidation” for “neuritic dystrophy”, “4-hydroxynonenal (HNE)” for “microtubule associated protein type 2 (MAP2)”
Once the treatment time of 7 days ended, the animals were sacrificed and the brains were dissected. The brain samples were processed and included in paraffin. For the analysis of the presence of neurons in apoptosis in the hippocampus, the T.U.N.E.L. (TdT-mediated dUTP nick end labeling) fluorescence technique was performed in 5 μm thick coronal sections.
Once the treatment time of 7 days ended, the animals were sacrificed and the brains were dissected. The brain samples were processed and included in paraffin. The analysis of reactive astrogliosis was performed by means of bright field immunochemistry against Glial fibrillary acidic protein (GFAP) in 5 μm thick coronal sections, which protein is present in astrocytes.

CCC(CC)C(=O)O[C@H]1C[C@@H](C)C=C2C=C[C@H](C)[C@H](CC[C@@H]3C[C@@H](O)CC(=O)O3)[C@H]21 [NST0037, (1S,2S,6R,8S,8aR)-1,2,6,7,8,8a-hexahydro-3,7-dimethyl-8-[2-[(2R,4R)-tetrahydro-4-hydroxy-6-oxo-2H-pyran-2-yl]ethyl]-1-naphthalenyl-2-ethyl-butyrate]
maximum protection (inhibition of apoptosis caused by camptothecin) ([1]; 40 and 100 μM NST0037, 6 h, no pretreatment): 18%
percentage of protection (inhibition of apoptosis) with pretreatment ([1]; 24 h pretreatment with 40 μM NST0037): up to 45%
inhibition halos at lower concentrations ([2]; 0.06 and 0.025 mM): the only one capable of causing inhibition halos
antifungal activity (inhibition halos) ([2]; 2 to 0.01 mM): higher antifungal activity than the statins included in the assay
apoptosis (T.U.N.E.L.) in hippocampus ([3]; NST0037+KA+NST0037 regimen): did not show neurons positive for T.U.N.E.L.
oxidative damage (HNE labeling) in hippocampus ([3]; NST0037+KA+NST0037 regimen): without HNE-labeled neurons
reactive astrogliosis (GFAP) in hippocampus ([3]; NST0037+KA+NST0037 regimen): astrocyte pattern very similar to that of the controls
neuritic dystrophy (MAP2 labeling) in hippocampus ([3]; NST0037+KA+NST0037 regimen): without evidence of neuritic dystrophy
apoptosis (T.U.N.E.L.) in hippocampus ([3]; PBS+KA+NST0037 regimen): reduces the number of neurons in apoptosis to a few isolated cells
oxidative damage (HNE labeling) in hippocampus ([3]; PBS+KA+NST0037 regimen): reduces the number of HNE-labeled neurons
reactive astrogliosis (GFAP) in hippocampus ([3]; PBS+KA+NST0037 regimen): reduces the number of astrocytes and the intensity of the GFAP labeling
neuritic dystrophy (MAP2 labeling) in hippocampus ([3]; PBS+KA+NST0037 regimen): clearly reduces the loss of MAP2 labeling
